The target in experiment [1] is T1, recombinant AST (Homo sapiens, UniProt O60235).
T1 construct: 232 amino acids from Ile at the 187th position to Ile at the 418th position; made in house; host or cells: insect cells (Tn-5), recombinant baculovirus
Briefly: AST-inhibiting activity of compound. Format: biochemical. To be noted: substrate Boc-Phe-Ser-Arg-MCA, 24° C., 6 minutes. How it is done:
0.05 mL of a 50 mM Tris-HCl buffer solution (pH 8.6) containing 2 ng/mL of the recombinant AST and 0.01% of Tween 20 was mixed with 2 μL of a DMSO solution containing nafamostat mesylate or gabexate mesylate as an evaluation target compound in various concentrations, and with 0.05 mL of a 50 mM Tris-HCl buffer solution (pH 8.6) containing 30 μM of a trypsin synthesis substrate: Boc-Phe-Ser-Arg-MCA, and incubated at 24° C. for 6 minutes. The quantities of the produced AMC were assayed by a fluorometry (fluorescent light: 460 nm, exciting light: 380 nm) with the passage of time, and the enzymatic activity-inhibiting ability of the compound was evaluated.

For experiment [2], the target named is T2, PAR-2 (Homo sapiens, UniProt P55085).
T2 construct: expressed in transfected cells; host or cells: Sf9 insect cells infected with recombinant baculovirus VL-PAR (pVL1393)
T2 sequence (P55085 26-397): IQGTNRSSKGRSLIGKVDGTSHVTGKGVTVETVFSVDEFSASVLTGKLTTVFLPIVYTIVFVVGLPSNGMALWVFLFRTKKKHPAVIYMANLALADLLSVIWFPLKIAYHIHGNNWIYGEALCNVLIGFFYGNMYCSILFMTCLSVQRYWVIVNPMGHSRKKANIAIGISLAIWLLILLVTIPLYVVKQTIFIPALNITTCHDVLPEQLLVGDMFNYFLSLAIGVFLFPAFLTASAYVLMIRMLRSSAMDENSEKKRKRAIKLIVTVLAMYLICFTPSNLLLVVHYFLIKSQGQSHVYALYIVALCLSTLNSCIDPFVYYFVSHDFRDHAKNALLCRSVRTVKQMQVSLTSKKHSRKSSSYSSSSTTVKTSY
Briefly: Calcium influx in PAR-2-expressing insect cells. Type of experiment: cell-based. To be noted: AST 2 units/mL; trypsin, thrombin 0.1 to 10 units/mL; SFLLRNamide, SLIGRL 10 to 100 μM. How it is done: The above-obtained recombinant baculovirus VL-PAR for expressing the PAR was used to infect 1.0×10^7 Sf9 cells sowed on a 75 cm^2 flask at an MOI=2, and was then left and stationally cultured at 27° C. for 40 hours. After the culture, the infected cells were recovered and then subjected to a calcium influx experiment to-confirm the function of the PAR.
The recovered infected cells (about 5×10^6 cells) were once washed with HEPES-Tyrode buffer solution-Ca^2+ (−) pH 7.4, and then suspended in 5 mL of HEPES-Tyrode buffer solution (containing Fura2-AM, 1 μg/mL) to load the Fura2-AM on the cells at 27° C. for 30 minutes. The suspension was centrifuged at 800 rpm at room temperature for 5 minutes to recover the cells. The cells were twice washed with HEPES-Tyrode buffer solution-Ca^2+ (−) pH 7.4 and then resuspended in 5 mL of HEPES-Tyrode buffer solution-Ca^2+ (−) pH 7.4. The cell suspension was mixed with 5 μL of 1M CaCl2 to give a final concentration of 1 mM CaCl2, and then incubated in a shaded state at room temperature for 5 minutes. The prepared Fura2-AM-loaded infected cells were dispensed into a 96 well plate in a volume of 100 μL/well, further subjected to the dispensation of HEPES-Tyrode buffer solution-C^2+ (+) pH 7.4 in a volume of 80 μL/well, and then assayed with a Fluorescence Drug Screening System (made by Hamamatsu Photonics Co.). Namely, [intensity of 500 nm fluorescent light due to 340 nm exciting light]/[intensity of 500 nm fluorescent light due to 380 nm exciting light] (reflecting the concentration of calcium in the cells) was assayed.

Experiment [3] has as its system normal human airway epithelial cells. Briefly: Calcium influx in normal human airway epithelial cells. Format: cell-based. To be noted: AST 2 units/mL; trypsin 10 to 100 units/mL; SFLLRNamide 100 μM. How it is done: The Ca^2+ influx due to the AST was examined with confluent normal epithelial cells adhered to three 10 cm dishes (purchased from BioWhittaker Corp.). The cells were peeled with a 10 mM EDTA/HEPES-Tyrode buffer solution for 10 minutes, recovered by a centrifugal treatment at 800 rpm at room temperature for 5 minutes, and then resuspended in 5 mL of HEPES-Tyrode buffer solution-Ca^2+ (−) pH 7.4. The recovered cells (about 1.2×10^6 cells) were suspended in 5 mL of HEPES-Tyrode buffer solution (1 μg/mL, containing Fura2-AM) to load the Fura2-AM to the cells at 37° C. for one hour. The cells were recovered by a centrifugal treatment at 800 rpm at room temperature for 5 minutes, twice washed with HEPES-Tyrode buffer solution-Ca^2+ (−) pH 7.4, and then resuspended in […] of HEPES-Tyrode buffer solution-Ca^2+ (−) pH 7.4. The cell suspension was mixed with 5 μL of 1M CaCl2 to give a final concentration of 1 mM CaCl2, and then incubated in a shaded state at room temperature for 5 minutes. The prepared Fura2-AM-loaded infected cells were dispensed into a 96 well plate in a volume of 100 μL/well, further subjected to the dispensation of HEPES-Tyrode buffer solution-Ca^2+ (+) pH 7.4 in a volume of 80 μL/well, and then assayed with Fluorescence Drug Screening System (Hamamatsu Photonics Co.). […]

The subject of experiment [4] is BEAS-2B. Briefly: Calcium influx in airway epithelial cell strain BEAS-2B. Type of experiment: cell-based. The following applies: AST 2 units/mL; trypsin 10 to 100 units/mL; SFLLRNamide 100 μM. How it is done:
The Ca^2+ influx due to the AST was examined with respect to an airway epithelial cell strain BEAS-2B. The confluent cells adhered to six 10 cm dishes were used. The cells were peeled with a 10 mM EDTA/HEPES-Tyrode buffer solution for 10 minutes, recovered by a centrifugal treatment at 1,500 rpm at room temperature for 5 minutes, and then resuspended in 10 mL of HEPES-Tyrode buffer solution-Ca^2+ (−) pH 7.4. The recovered cells (about 1.1×10^7 cells) were suspended in 11 mL of HEPES-Tyrode buffer solution (1 μg/mL, containing Fura2-AM) to load the Fura2-AM at 37° C. for 30 minutes. The cells were recovered by a centrifugal treatment at 1,500 rpm at room temperature for 5 minutes, twice washed with HEPES-Tyrode buffer solution-Ca^2+ (−) pH 7.4, and then resuspended in 11 mL of HEPES-Tyrode buffer solution-Ca^2+ (−) pH 7.4. The cell suspension was mixed with […] of 1M CaCl2 to give a final concentration of 1 mM CaCl2, and then incubated in a shaded state at room temperature for 5 minutes. The prepared Fura2-AM-loaded infected cells were dispensed into a 96 well plate in a volume of 100 μL/well, further subjected to the dispensation of HEPES-Tyrode buffer solution-Ca^2+ (+) pH 7.4 in a volume of 80 μL/well, and then assayed with Fluorescence Drug Screening System (Hamamatsu Photonics Co.). […]

pIC50: −log10 of the molar value. Structures can show the parent of a compound that is named as a salt.

T1 sequence (O60235 187-418): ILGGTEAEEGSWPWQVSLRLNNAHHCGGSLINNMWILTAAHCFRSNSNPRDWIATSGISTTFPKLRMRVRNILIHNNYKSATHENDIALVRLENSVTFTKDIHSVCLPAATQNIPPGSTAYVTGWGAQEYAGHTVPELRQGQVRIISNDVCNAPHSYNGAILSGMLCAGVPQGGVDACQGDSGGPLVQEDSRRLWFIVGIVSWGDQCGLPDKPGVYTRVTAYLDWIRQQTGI
T1 sequence (O60235 162-186 partner limits assumed): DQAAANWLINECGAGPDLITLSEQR

Consider `N=C(N)c1ccc2cc(OC(=O)c3ccc(N=C(N)N)cc3)ccc2c1` [Nafamostat mesylate, nafamostat mesylate], for which, in experiment [1], the pIC50 is 6.64. SFLLRNamide [reference compound]: the “Ca2+ influx” value in experiment [2], in experiment [3] and in experiment [4] was “observed” each time. Regarding gabexate mesylate, in experiment [1], the pIC50 was 6.85.

For the origin of these results see patent US20040038369A1, “Airway-specific trypsin-like enzymes and method of using the same” (priority 2000, published 2004).
